Broadly, the logP is the decadic logarithm of the partition coefficient of the neutral form, usually between octanol and water. High values mean a more lipophilic compound, low ones a more hydrophilic compound. The chromatographic logP is lipophilicity estimated from chromatographic retention. A lower chromatographic logP goes with a more hydrophilic compound.

The first data set can be described thus: log P by HPLC, EEC Directive 79/831 Annex V.A8, method a). Format: physicochemical. As to conditions: cell prints no method mark; Ex. 40 value equals the log P given under method a). Here is the method:
(§1) ^a) Note regarding the determination of the log P values and mass detection The determination of the given log P values was carried out in accordance with EEC Directive 79/831 Annex V.A8 by HPLC (High Performance Liquid Chromatography) on a reversed-phase column (C18). Agilent 1100 LC system; 50*4.6 Zorbax Eclipse Plus C18 1.8 micron; mobile phase A: acetonitrile (0.1% formic acid); mobile phase B: water (0.09% formic acid); linear gradient from 10% acetonitrile to 95% acetonitrile in 4.25 min, then 95% acetonitrile for a further 1.25 min; oven temperature 55° C.; flow rate: 2.0 ml/min Mass detection is via an Agilend MSD system.
as §1, with “mass detection:” for “mass detection”, “2.0 ml/min.” for “2.0 ml/min”
In turn, `Cn1nc(C(F)(F)F)c(C(F)(F)F)c1C(=O)Nc1cc(Br)c(Br)c(C(=O)NC2(C#N)CC2)c1` [Example 11] registered a logP of 3.30. The compound `Cn1nc(C(F)(F)F)c(C(F)(F)F)c1C(=O)Nc1cc(Cl)c(Br)c(C(=O)NC2(C#N)CC2)c1` [Example 12] returned a logP of 3.27. On the same count and under the same terms, the same measure for `Cn1nc(C(F)(F)C(F)(F)F)c(C(F)(F)F)c1C(=O)Nc1cc(Br)c(Cl)c(C(=O)NC2(C#N)CC2)c1` [Example 13]: 3.67; for `CCC(=O)N(C(=O)c1cc(NC(=O)c2c(C(F)(F)F)c(C(F)(F)C(F)(F)F)nn2C)ccc1Cl)C1(C#N)CC1` [Example 15]: 4.17; for `Cn1nc(C(F)(F)C(F)(F)F)c(C(F)(F)F)c1C(=O)Nc1cc(Cl)c(Br)c(C(=O)NC2(C#N)CC2)c1` [Example 16]: 3.73. Same read-out and setting: then `Cn1nc(C2(F)CC2)c(Cl)c1C(=O)Nc1ccc(Cl)c(C(=O)NC2(C#N)CC2)c1` [Example 17], with 2.50; and `CC(=O)N(C(=O)c1c(C(F)(F)F)c(C(F)(F)C(F)(F)F)nn1C)c1ccc(Cl)c(C(=O)N(C(C)=O)C2(C#N)CC2)c1` [Example 18], with 4.04. On the same count and under the same terms, then `COC(=O)N(C(=O)c1c(C(F)(F)F)c(C(F)(F)C(F)(F)F)nn1C)c1ccc(Cl)c(C(=O)NC2(C#N)CC2)c1` [Example 19], with 3.69; and `CCOC(=O)N(C(=O)c1c(C(F)(F)F)c(C(F)(F)C(F)(F)F)nn1C)c1ccc(Cl)c(C(=O)NC2(C#N)CC2)c1` [Example 20], with 3.95; and `COC(=O)N(C(=O)c1c(C(F)(F)F)c(C(F)(F)C(F)(F)F)nn1C)c1ccc(Cl)c(C(=O)N(C(=O)OC)C2(C#N)CC2)c1` [Example 21], with 4.32. `CCOC(=O)N(C(=O)c1c(C(F)(F)F)c(C(F)(F)C(F)(F)F)nn1C)c1ccc(Cl)c(C(=O)N(C(=O)OCC)C2(C#N)CC2)c1` [Example 22] gave a logP of 4.80.

`Cn1nc(C(F)(F)C(F)(F)F)c(C(F)(F)F)c1C(=O)N(C(=O)C(C)(C)C)c1ccc(Cl)c(C(=O)NC2(C#N)CC2)c1` [Example 23] gave a logP of 4.40.

Turning to `Cc1cc(NC(=O)c2c(C(F)(F)F)c(C(F)(F)C(F)(F)F)nn2C)cc(C(=O)NC2(C#N)CC2)c1Cl` [Example 24], the logP amounted to 3.51. Turning to `C#CCN(C(=O)c1c(C(F)(F)F)c(C(F)(F)C(F)(F)F)nn1C)c1ccc(Cl)c(C(=O)NC2(C#N)CC2)c1` [Example 26], the logP is recorded as 3.41. `Cn1nc(C(F)(F)C(F)(F)F)c(C(F)(F)F)c1C(=O)Nc1ccc(F)c(C(=O)NC2(C#N)CC2)c1` [Example 27] yielded a logP of 3.21. Still for that read-out and setting: then `Cn1nc(C(F)(F)C(F)(F)F)c(C(F)(F)F)c1C(=O)N(Cc1ccc(Cl)cc1)c1ccc(Cl)c(C(=O)NC2(C#N)CC2)c1` [Example 28], with 4.30; and `CC(C)C(=O)N(C(=O)c1c(C(F)(F)F)c(C(F)(F)C(F)(F)F)nn1C)c1ccc(Cl)c(C(=O)NC2(C#N)CC2)c1` [Example 29], with 4.38; and `CC#CCN(C(=O)c1c(C(F)(F)F)c(C(F)(F)C(F)(F)F)nn1C)c1ccc(Cl)c(C(=O)NC2(C#N)CC2)c1` [Example 30], with 3.60.

`Cn1nc(C(F)(F)C(F)(F)F)c(C(F)(F)F)c1C(=O)N(Cc1ccccc1)c1ccc(Cl)c(C(=O)NC2(C#N)CC2)c1` [Example 31] had a logP of 3.97. With `Cn1nc(C(F)(F)C(F)(F)F)c(C(F)(F)F)c1C(=O)N(Cc1ccccn1)c1ccc(Cl)c(C(=O)NC2(C#N)CC2)c1` [Example 32], the logP is 3.53. `CCC(=O)N(C(=O)c1c(C(F)(F)F)c(C(F)(F)C(F)(F)F)nn1C)c1ccc(Cl)c(C(=O)NC2(C#N)CC2)c1` [Example 33] showed a logP of 3.91. The same measure, in the same setting: then `CCn1nc(C(F)(F)C(F)(F)F)c(C(F)(F)F)c1C(=O)Nc1ccc(Cl)c(C(=O)NC2(C#N)CC2)c1` [Example 34], with 3.53; and `CCCn1nc(C(F)(F)C(F)(F)F)c(C(F)(F)F)c1C(=O)Nc1ccc(Cl)c(C(=O)NC2(C#N)CC2)c1` [Example 35], with 3.87; and `CCCn1nc(C(F)(F)C(F)(F)F)c(C(F)(F)F)c1C(=O)Nc1ccc(F)c(C(=O)NC2(C#N)CC2)c1` [Example 36], with 3.74. Still for that read-out and setting: then `CCn1nc(C(F)(F)C(F)(F)F)c(C(F)(F)F)c1C(=O)Nc1ccc(F)c(C(=O)NC2(C#N)CC2)c1` [Example 37], with 3.44. On the same count and under the same terms, then `CCn1nc(C(F)(F)C(F)(F)F)c(C(F)(F)F)c1C(=O)N(C)c1ccc(Cl)c(C(=O)NC2(C#N)CC2)c1` [Example 38], with 3.57; and `CCn1nc(C(F)(F)C(F)(F)F)c(C(F)(F)F)c1C(=O)N(C)c1ccc(Cl)c(C(=O)N(C)C2(C#N)CC2)c1` [Example 41], with 3.85; and `CSc1c(C(F)(F)C(F)(F)F)nn(C)c1C(=O)Nc1ccc(Cl)c(C(=O)NC2(C#N)CC2)c1` [Example 42], with 3.43.

In the case of `CCN(C(=O)c1c(C(F)(F)F)c(C(F)(F)C(F)(F)F)nn1CC)c1ccc(Cl)c(C(=O)NC2(C#N)CC2)c1` [Example 43], the logP is on record as 3.68. As to `Cn1nc(C(F)(F)C(F)(F)F)c(C(F)(F)F)c1C(=O)N(CC#N)c1ccc(Cl)c(C(=O)NC2(C#N)CC2)c1` [Example 44], the logP is reported as 3.25.

In the case of `Cn1nc(C(F)(F)C(F)(F)F)c([S+](C)[O-])c1C(=O)Nc1ccc(Cl)c(C(=O)NC2(C#N)CC2)c1` (stereo not shown) [Example 45], the logP worked out at 2.91.

`CCCn1nc(C(F)(F)C(F)(F)F)c(C(F)(F)F)c1C(=O)N(C)c1ccc(Cl)c(C(=O)N(C)C2(C#N)CC2)c1` [Example 46]: the logP is on record as 4.26. For `CCCn1nc(C(F)(F)C(F)(F)F)c(C(F)(F)F)c1C(=O)N(C)c1ccc(F)c(C(=O)N(C)C2(C#N)CC2)c1` [Example 47], the logP is 4.05. Still for that read-out and setting: then `CCn1nc(C(F)(F)C(F)(F)F)c(C(F)(F)F)c1C(=O)N(C)c1ccc(F)c(C(=O)N(C)C2(C#N)CC2)c1` [Example 48], with 3.76; and `Cn1nc(C(F)(F)C(F)(F)F)c(S(C)(=O)=O)c1C(=O)Nc1ccc(Cl)c(C(=O)NC2(C#N)CC2)c1` [Example 49], with 2.47; and `CCCn1nc(C(F)(F)C(F)(F)F)c(C(F)(F)F)c1C(=O)N(CC)c1ccc(Cl)c(C(=O)N(CC)C2(C#N)CC2)c1` [Example 51], with 4.68.

As for `CCN(C(=O)c1c(C(F)(F)F)c(C(F)(F)C(F)(F)F)nn1CC)c1ccc(Cl)c(C(=O)N(CC)C2(C#N)CC2)c1` [Example 52], the logP turned out to be 4.26.

The same data set, now with this note: reversed-phase C18 HPLC column; HPLC-MS method a), reversed-phase C18, acetonitrile/water with formic acid.
The compound `Cn1nc(C(F)(F)C(F)(F)F)c(C(F)(F)F)c1C(=O)Nc1ccc(Cl)c(C(=O)O)c1` [2-Chloro-5-({[1-methyl-3-(pentafluoroethyl)-4-(trifluoromethyl)-1H-pyrazol-5-yl]carbonyl}amino)benzenecarboxylic acid] returned a chromatographic logP of 3.18.

On to `N#CC1(NC(=O)c2cc([N+](=O)[O-])ccc2Cl)CC1` [2-chloro-N-(1-cyanocyclopropyl)-5-nitrobenzamide], for which the chromatographic logP amounted to 1.52. Still for that read-out and setting: the same measure for `Cn1nc(C2(Cl)CC2)c(Cl)c1C(=O)O` [4-Chloro-3-(1-chlorocyclopropyl)-1-methyl-1H-pyrazole-5-carboxylic acid]: 1.9; for `Cn1nc(C2(F)CC2)c(Cl)c1C(=O)O` [4-Chloro-3-(1-fluorocyclopropyl)-1-methyl-1H-pyrazole-5-carboxylic acid]: 3.07.

Consider `N#CC1(NC(=O)c2cc(N)ccc2Cl)CC1` [5-Amino-2-chloro-N-(1-cyanocyclopropyl)benzamide], for which the chromatographic logP is 0.82. The same measure, in the same setting: then `CCOC(=O)c1c(Cl)c(C2(Cl)CC2)nn1C` [Ethyl 4-chloro-3-(1-chlorocyclopropyl)-1-methyl-1H-pyrazole-5-carboxylate], with 3.52; and `CCOC(=O)c1c(Cl)c(C2(F)CC2)nn1C` [Ethyl 4-chloro-3-(1-fluorocyclopropyl)-1-methyl-1H-pyrazole-5-carboxylate], with 3.07. The same measure, in the same setting: then `CC(=O)N(C(=O)c1cc(NC(=O)c2c(C(F)(F)F)c(C(F)(F)C(F)(F)F)nn2C)ccc1Cl)C1(C#N)CC1` [Example 40, N-{3-[Acetyl(1-cyanocyclopropyl)carbamoyl]-4-chlorophenyl}-1-methyl-3-(pentafluoroethyl)-4-(trifluoromethyl)-1H-pyrazole-5-carboxamide], with 3.81. Same read-out and setting: the same measure for `CCCn1nc(C(F)(F)C(F)(F)F)c(C(F)(F)F)c1C(=O)N(CC)c1ccc(Cl)c(C(=O)NC2(C#N)CC2)c1` [Example 50, N-{4-Chloro-3-[(1-cyanocyclopropyl)carbamoyl]phenyl}-N-ethyl-3-(pentafluoroethyl)-1-propyl-4-(trifluoromethyl)-1H-pyrazole-5-carboxamide]: 4.06.

Still in this data set, the particulars now being: reversed-phase HPLC column (C18); HPLC-MS, method note not marked.
In turn, `CSc1c(C(F)(F)C(F)(F)F)nn(C)c1C(=O)O` [1-Methyl-4-(methylsulphanyl)-3-(pentafluoroethyl)-1H-pyrazole-5-carboxylic acid] returned a chromatographic logP of 3.51.

The data set is the same for the next values; noted with them: reversed-phase HPLC column (C18); cell prints no method mark; Ex. 40 value equals the log P given under method a).
Regarding `CC(=O)N(C(=O)c1cc(NC(=O)c2c(C(F)(F)F)c(C(F)(F)C(F)(F)F)nn2C)ccc1Cl)C1(C#N)CC1` [Example 40, N-{3-[Acetyl(1-cyanocyclopropyl)carbamoyl]-4-chlorophenyl}-1-methyl-3-(pentafluoroethyl)-4-(trifluoromethyl)-1H-pyrazole-5-carboxamide], the chromatographic logP turned out to be 3.81.

The compound `CCCn1nc(C(F)(F)C(F)(F)F)c(C(F)(F)F)c1C(=O)N(CC)c1ccc(Cl)c(C(=O)NC2(C#N)CC2)c1` [Example 50, N-{4-Chloro-3-[(1-cyanocyclopropyl)carbamoyl]phenyl}-N-ethyl-3-(pentafluoroethyl)-1-propyl-4-(trifluoromethyl)-1H-pyrazole-5-carboxamide] displayed a chromatographic logP of 4.06.

(Values after patent US9126945B2, “N-(3-carbamoylphenly)-1H-pyrazole-5-carboxamide derivatives and the use thereof for controlling animal pests” (BAYER INTELLECTUAL PROPERTY GMBH, priority 2011, dated 2015).)
